Paper PMC6114901, “An automated screening method for detecting compounds with goitrogenic activity using transgenic zebrafish embryos” (PLoS ONE, 2018)
Where two headings read alike, the source gives them in different places.

Legend:
[1] = system: thyroglobulin (tg:mCherry reporter gene); experiment: animal or person; settings: for EC50: Danio rerio, read-out: EC50 (tg:mCherry induction)
Experimental: In order to avoid interference of test chemicals with early thyroid gland development, zebrafish embryos were cultured in exposure medium until 48 hours post fertilization (hpf). Subsequently, they were exposed to seven known thyroid endocrine disrupters for 3 days (48 to 120 hpf). The non-goitrogenic compound 3,4-dichloroaniline, that is used as reference compound in the zebrafish acute embryo toxicity test was used as negative control. […] No solvents were used. […] Five concentrations and one control were tested per compound and replicate. In the second replicate the range of concentration was adjusted to improve fitting of concentration-response curves. […] Given the lack of appropriate spectral properties stability of exposure concentrations was not analysed for potassium perchlorate. Embryos were kept in the incubator at 26°C and a 14:10 hours light:dark cycle. The exposure was conducted in crystallisation dishes covered with watchmaker glasses with 30 embryos in 30 ml exposure medium (for exposure medium refer to [26]).
Embryos were positioned ventrally toward the microscope objective. Per embryo a bright field image, an autofocus fluorescence image and a Z-stack of 9 images were obtained. The Z-stack was required in case of autofocus failure and manual selection of the focal plane. Fluorescence images were obtained with 400 ms of fluorescent light exposure at maximal light intensity and a gain of 1. […] However, care was taken, that at least 10 images per concentration and replicates were assessed. To avoid a time bias during the analysis the sequence of wells for analysis was arranged in order to obtain a uniform distribution over the entire period of analysis.
The images were analysed using a KNIME workflow (Version 3.3.3., [29]) with the extension “KNIME image processing”. In brief, images were loaded into the workflow and the background was removed automatically using the “rolling ball” procedure of the image J plugin (rolling ball size set to 50 pixels). Subsequently the area containing the thyroid gland was manually selected by drawing a rectangle around the appropriate region using the interactive annotation node. […] If possible the autofocus images were used. In case that the thyroid gland was out of focus due to the presence of autofluorescing pigment cells, an appropriate image from the Z-stack was selected. All subsequent steps were conducted without any user interaction. […] Finally the sum of pixel (reflecting area of the thyroid gland and intensity of fluorescence) was calculated for the labeled area and used as a proxy of fluorescence intensity (see Fig 1 for an overview of the workflow). For each replicate the sum was of pixels was normalized by setting controls to the value of one. For data of individual embryos see S4 Table. The KNIME workflow used for image analysis is provided as supplement file (S1 Workflow).
To characterize the potency of the investigated goitrogenic compounds, we calculated EC50 values of tg:mcherry fluorescence using the pixel sum obtained from image analysis. For each replicate the fluorescence intensity was normalized by dividing the mean fluorescence intensity of each concentration with the mean control fluorescence intensity. Concentration-response curves of tgmcherry fluorescence were fitted to the data using the Hill-slope equation (Eq 1) and used to estimate EC50 values.
The parameter Min was set to 1 and the slope (p) and the maximum fluorescence (Max) were estimated.

[2] = system: thyroglobulin (tg:mCherry reporter gene); set-up: method as in PMID 25962731; settings: manual positioning and image analysis; cited from earlier work
zebrafish embryos [3] = settings: read-out: LC50 (48–120 hpf); mortality; ref Fetter et al. [22]; cited from earlier work
[4] = ref chemspider (http://www.chemspider.com); cited from earlier work
[5] = system: thyroid hormone levels (T4); settings: cited from earlier work; for EC50: read-out: EC50 T4 reduction, reduction of thyroid hormone levels (immunostaining)
in vivo = settings: zebrafish, in vivo, LC50 (48–120 hpf), mortality, embryos exposed 48–120 hpf
Experimental: (§1) Fish embryo acute toxicity tests were performed similar as described previously, using 10 or 25 embryos per concentration and replicate exposed in crystallization dishes from 48 to 120 hpf. No exchange of exposure media was performed. Lethality was identified by coagulation, missing heartbeat, a non–detached tail and/or missing of somites. Raw data for mortality and phenotypic assessment are provided as S1 Table. Concentration-response curves for mortality are shown in S2 Fig.

zebrafish embryos [6] = experiment: in vivo
Experimental: as §1

[7] = 72 hpf, 987.65 µmol/L, replicate 2, 10 embryos
[8] = 72 hpf, 1481.48 µmol/L, replicate 2, 10 embryos
[9] = 72 hpf, 2222.22 µmol/L, replicate 2, 10 embryos
[10] = 72 hpf, 3333.33 µmol/L, replicate 2, 10 embryos
[11] = 72 hpf, 5000.00 µmol/L, replicate 2, 10 embryos
[12] = 96 hpf, 987.65 µmol/L, replicate 2, 10 embryos
[13] = 96 hpf, 1481.48 µmol/L, replicate 2, 10 embryos
[14] = 96 hpf, 2222.22 µmol/L, replicate 2, 10 embryos
[15] = 96 hpf, 3333.33 µmol/L, replicate 2, 10 embryos
[16] = 96 hpf, 5000.00 µmol/L, replicate 2, 10 embryos
[17] = 120 hpf, 937.50 µmol/L, replicate 1, 25 embryos
[18] = 120 hpf, 987.65 µmol/L, replicate 2, 10 embryos
[19] = 120 hpf, 1481.48 µmol/L, replicate 2, 10 embryos
[20] = 120 hpf, 1875.00 µmol/L, replicate 1, 25 embryos
[21] = 120 hpf, 2222.22 µmol/L, replicate 2, 10 embryos
[22] = 120 hpf, 3333.33 µmol/L, replicate 2, 10 embryos
[23] = 120 hpf, 3750.00 µmol/L, replicate 1, 25 embryos
[24] = 120 hpf, 5000.00 µmol/L, replicate 2, 10 embryos
[25] = 120 hpf, 7500.00 µmol/L, replicate 1, 25 embryos
[26] = 120 hpf, 15000.00 µmol/L, replicate 1, 25 embryos

Cn1cc[nH]c1=S [Methimazole, methimazole]
EC50 [1]: 279 µM | BMD 20 ([1]; zebrafish, in vivo): 186 µM | Slope ([1]; zebrafish, in vivo): 3.3 | TDI ([1]; zebrafish, in vivo): 103 | EC50 [2]: 551 µM | LC50 (zebrafish embryos [3]): 28800 µM | Log D (pH 7.4) [4]: -0.11 | EC50 ([5]; ref Thienpont et al. [13]): 290 µM | TDI (T4) ([5]; zebrafish, in vivo): 75

Oc1cccc(O)c1 [Resorcinol, resorcinol]
EC50 [1]: 3.4 µM | BMD 20 ([1]; zebrafish, in vivo): 0.663 µM | Slope ([1]; zebrafish, in vivo): 0.78 | TDI ([1]; zebrafish, in vivo): 1529 | effect on tg:mCherry fluorescence ([1]; zebrafish, in vivo): weaker induction or repression of fluorescence | LC50 (in vivo): 5200 µM | No Surviving (zebrafish embryos [6]; [7]): 10 | No hatched (zebrafish embryos [6]; [7]): 9 | No Surviving (zebrafish embryos [6]; [8]): 10 | No hatched (zebrafish embryos [6]; [8]): 10 | No Surviving (zebrafish embryos [6]; [9]): 10 | No hatched (zebrafish embryos [6]; [9]): 9 | No Surviving (zebrafish embryos [6]; [10]): 10 | No hatched (zebrafish embryos [6]; [10]): 10 | Total Sublethal (zebrafish embryos [6]; [10]): 6 | Ydef (yolk deformation) (zebrafish embryos [6]; [10]): 6 | No Surviving (zebrafish embryos [6]; [11]): 10 | No hatched (zebrafish embryos [6]; [11]): 10 | Total Sublethal (zebrafish embryos [6]; [11]): 8 | Ydef (yolk deformation) (zebrafish embryos [6]; [11]): 8 | No Surviving (zebrafish embryos [6]; [12]): 10 | No hatched (zebrafish embryos [6]; [12]): 10 | No Surviving (zebrafish embryos [6]; [13]): 10 | No hatched (zebrafish embryos [6]; [13]): 10 | Total Sublethal (zebrafish embryos [6]; [13]): 1 | Ydef (yolk deformation) (zebrafish embryos [6]; [13]): 1 | No Surviving (zebrafish embryos [6]; [14]): 10 | No hatched (zebrafish embryos [6]; [14]): 10 | Total Sublethal (zebrafish embryos [6]; [14]): 2 | Ydef (yolk deformation) (zebrafish embryos [6]; [14]): 2 | No Surviving (zebrafish embryos [6]; [15]): 10 | No hatched (zebrafish embryos [6]; [15]): 10 | Total Sublethal (zebrafish embryos [6]; [15]): 5 | Ydef (yolk deformation) (zebrafish embryos [6]; [15]): 2 | mch (malformation of chorda/scoliosis) (zebrafish embryos [6]; [15]): 5 | No Surviving (zebrafish embryos [6]; [16]): 10 | No hatched (zebrafish embryos [6]; [16]): 10 | Total Sublethal (zebrafish embryos [6]; [16]): 10 | Ydef (yolk deformation) (zebrafish embryos [6]; [16]): 7 | nobc (no blood circulation) (zebrafish embryos [6]; [16]): 2 | nomov (no spontaneous movement) (zebrafish embryos [6]; [16]): 10 | No Surviving (zebrafish embryos [6]; [17]): 25 | k/f (coagulated) (zebrafish embryos [6]; [17]): 0 | No Surviving (zebrafish embryos [6]; [18]): 10 | No hatched (zebrafish embryos [6]; [18]): 10 | EdY / EdP (heart or yolk sac edema) (zebrafish embryos [6]; [19]): 1 | No Surviving (zebrafish embryos [6]; [19]): 10 | No hatched (zebrafish embryos [6]; [19]): 10 | Total Sublethal (zebrafish embryos [6]; [19]): 1 | Ydef (yolk deformation) (zebrafish embryos [6]; [19]): 1 | No Surviving (zebrafish embryos [6]; [20]): 25 | k/f (coagulated) (zebrafish embryos [6]; [20]): 0 | nomov (no spontaneous movement) (zebrafish embryos [6]; [20]): 25 | EdY / EdP (heart or yolk sac edema) (zebrafish embryos [6]; [21]): 1 | No Surviving (zebrafish embryos [6]; [21]): 10 | No hatched (zebrafish embryos [6]; [21]): 10 | Total Sublethal (zebrafish embryos [6]; [21]): 2 | Ydef (yolk deformation) (zebrafish embryos [6]; [21]): 2 | No Surviving (zebrafish embryos [6]; [22]): 10 | No hatched (zebrafish embryos [6]; [22]): 10 | Total Sublethal (zebrafish embryos [6]; [22]): 5 | Ydef (yolk deformation) (zebrafish embryos [6]; [22]): 5 | mch (malformation of chorda/scoliosis) (zebrafish embryos [6]; [22]): 4 | EdY / EdP (heart or yolk sac edema) (zebrafish embryos [6]; [23]): 25 | No Surviving (zebrafish embryos [6]; [23]): 25 | Total Sublethal (zebrafish embryos [6]; [23]): 25 | k/f (coagulated) (zebrafish embryos [6]; [23]): 0 | EdY / EdP (heart or yolk sac edema) (zebrafish embryos [6]; [24]): 8 | No Surviving (zebrafish embryos [6]; [24]): 7 | No hatched (zebrafish embryos [6]; [24]): 10 | Total Sublethal (zebrafish embryos [6]; [24]): 7 | Ydef (yolk deformation) (zebrafish embryos [6]; [24]): 8 | mch (malformation of chorda/scoliosis) (zebrafish embryos [6]; [24]): 3 | nobc (no blood circulation) (zebrafish embryos [6]; [24]): 10 | nohb (no heartbeat) (zebrafish embryos [6]; [24]): 3 | nomov (no spontaneous movement) (zebrafish embryos [6]; [24]): 10 | No Surviving (zebrafish embryos [6]; [25]): 0 | k/f (coagulated) (zebrafish embryos [6]; [25]): 25 | No Surviving (zebrafish embryos [6]; [26]): 0 | k/f (coagulated) (zebrafish embryos [6]; [26]): 25 | LC10 (zebrafish embryos [6]; mortality after 72 h of exposure, S2 Fig, unit not given, in µM): 4701 | Slope (zebrafish embryos [6]; mortality concentration-response curve, 72 h of exposure): 21.9 | Log D (pH 7.4) [4]: 0.86 | EC50 ([5]; ref Thienpont et al. [13]): 82 µM | TDI (T4) ([5]; thyroid disruption index based on T4 reduction, ref Thienpont et al. [13]): 62
